Laboratory results published in the supplement of paper PMC10307832.

Legend:
Experiment in all cases: relative viability (nuclei count vs DMSO), 5 days (fraction); higher = more cells survive
SW 1573 = tested on: SW 1573
Outline: (§1)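 Lung cancer cell lines were pin-tool dosed in 1536-well plates on the day after seeding, with either a lone drug or a fixed anchor-drug dose plus five library-drug doses (not always all listed) in √10 steps. Nuclei were counted on 4× images after 5 days. Relative viability is the ratio of treated-well to vehicle-well nuclei counts, with each value a median of duplicate plates.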

NCI-H647 = tested on: NCI-H647
Outline: as §1

NCI-H520 = tested on: NCI-H520
Outline: as §1

SW 900 = tested on: SW 900
Outline: as §1

HOP-62 = tested on: HOP-62
Outline: as §1

NCI-H441 = tested on: NCI-H441
Outline: as §1

LOU-NH91 = tested on: LOU-NH91
Outline: as §1

NCI-H1437 = tested on: NCI-H1437
Outline: as §1

NCI-H2126 = tested on: NCI-H2126
Outline: as §1

NCI-H1793 = tested on: NCI-H1793
Outline: as §1

ChaGo-K-1 = tested on: ChaGo-K-1
Outline: as §1

NCI-H2170 = tested on: NCI-H2170
Outline: as §1

LCLC-103H = tested on: LCLC-103H
Outline: as §1

NCI-H2023 = tested on: NCI-H2023
Outline: as §1

NCI-H460 = tested on: NCI-H460
Outline: as §1

NCI-H2009 = tested on: NCI-H2009
Outline: as §1

NCI-H650 = tested on: NCI-H650
Outline: as §1

NCI-H2405 = tested on: NCI-H2405
Outline: as §1

PC-14 = tested on: PC-14
Outline: as §1

NCI-H23 = tested on: NCI-H23
Outline: as §1

EPLC-272H = tested on: EPLC-272H
Outline: as §1

EMC-BAC-2 = tested on: EMC-BAC-2
Outline: as §1

NCI-H2347 = tested on: NCI-H2347
Outline: as §1

NCI-H727 = tested on: NCI-H727
Outline: as §1

CCCCCCCCCCCC1=C(O)C(=O)C=C(O)C1=O [Embelin] + COc1cc2c(Oc3ccc(NC(=O)C4(C(=O)Nc5ccc(F)cc5)CC4)cc3F)ccnc2cc1OCCCN1CCOCC1 [Foretinib] (partner 0.25 µM)
relative viability (SW 1573; first compound 0.08 µM): 0.974 | relative viability (SW 1573; first compound 0.8 µM): 0.998 | relative viability (SW 1573; first compound 2.53 µM): 1.08 | relative viability (SW 1573; first compound 8 µM): 0.948 | relative viability (NCI-H647; first compound 0.08 µM): 1.37 | relative viability (NCI-H647; first compound 0.8 µM): 1.38 | relative viability (NCI-H647; first compound 2.53 µM): 1.28 | relative viability (NCI-H647; first compound 8 µM): 1.08 | relative viability (NCI-H520; first compound 0.08 µM): 0.891 | relative viability (NCI-H520; first compound 0.8 µM): 0.891 | relative viability (NCI-H520; first compound 2.53 µM): 0.878 | relative viability (NCI-H520; first compound 8 µM): 0.807 | relative viability (SW 900; first compound 0.08 µM): 0.89 | relative viability (SW 900; first compound 0.8 µM): 0.915 | relative viability (SW 900; first compound 2.53 µM): 1.02 | relative viability (SW 900; first compound 8 µM): 0.876 | relative viability (HOP-62; first compound 0.08 µM): 1.27 | relative viability (HOP-62; first compound 0.8 µM): 1.18 | relative viability (HOP-62; first compound 2.53 µM): 1.23 | relative viability (HOP-62; first compound 8 µM): 1.25 | relative viability (NCI-H441; first compound 0.08 µM): 1.05 | relative viability (NCI-H441; first compound 0.8 µM): 1.09 | relative viability (NCI-H441; first compound 2.53 µM): 1.22 | relative viability (NCI-H441; first compound 8 µM): 1.09 | relative viability (LOU-NH91; first compound 0.08 µM): 0.968 | relative viability (LOU-NH91; first compound 0.8 µM): 1.08 | relative viability (LOU-NH91; first compound 2.53 µM): 1.09 | relative viability (LOU-NH91; first compound 8 µM): 0.978 | relative viability (NCI-H1437; first compound 0.08 µM): 1.25 | relative viability (NCI-H1437; first compound 0.8 µM): 1.24 | relative viability (NCI-H1437; first compound 2.53 µM): 1.27 | relative viability (NCI-H1437; first compound 8 µM): 1.06 | relative viability (NCI-H2126; first compound 0.08 µM): 1.12 | relative viability (NCI-H2126; first compound 0.8 µM): 1.21 | relative viability (NCI-H2126; first compound 2.53 µM): 1.23 | relative viability (NCI-H2126; first compound 8 µM): 1.2 | relative viability (NCI-H1793; first compound 0.08 µM): 0.712 | relative viability (NCI-H1793; first compound 0.8 µM): 0.76 | relative viability (NCI-H1793; first compound 2.53 µM): 0.916 | relative viability (NCI-H1793; first compound 8 µM): 0.765 | relative viability (ChaGo-K-1; first compound 0.08 µM): 0.951 | relative viability (ChaGo-K-1; first compound 0.8 µM): 1.01 | relative viability (ChaGo-K-1; first compound 2.53 µM): 1 | relative viability (ChaGo-K-1; first compound 8 µM): 1.01 | relative viability (NCI-H2170; first compound 0.08 µM): 0.539 | relative viability (NCI-H2170; first compound 0.8 µM): 1.08 | relative viability (NCI-H2170; first compound 2.53 µM): 1.06 | relative viability (NCI-H2170; first compound 8 µM): 1 | relative viability (LCLC-103H; first compound 0.08 µM): 0.736 | relative viability (LCLC-103H; first compound 0.8 µM): 0.842 | relative viability (LCLC-103H; first compound 2.53 µM): 0.912 | relative viability (LCLC-103H; first compound 8 µM): 0.755 | relative viability (NCI-H2023; first compound 0.08 µM): 0.819 | relative viability (NCI-H2023; first compound 0.8 µM): 0.891 | relative viability (NCI-H2023; first compound 2.53 µM): 0.887 | relative viability (NCI-H2023; first compound 8 µM): 0.75 | relative viability (NCI-H460; first compound 0.08 µM): 0.996 | relative viability (NCI-H460; first compound 0.8 µM): 1.03 | relative viability (NCI-H460; first compound 2.53 µM): 1.11 | relative viability (NCI-H460; first compound 8 µM): 1.08 | relative viability (NCI-H2009; first compound 0.08 µM): 1.24 | relative viability (NCI-H2009; first compound 0.8 µM): 1.33 | relative viability (NCI-H2009; first compound 2.53 µM): 1.24 | relative viability (NCI-H2009; first compound 8 µM): 1.17 | relative viability (NCI-H650; first compound 0.08 µM): 0.998 | relative viability (NCI-H650; first compound 0.8 µM): 1.21 | relative viability (NCI-H650; first compound 2.53 µM): 1.08 | relative viability (NCI-H650; first compound 8 µM): 1.02 | relative viability (NCI-H2405; first compound 0.08 µM): 1.15 | relative viability (NCI-H2405; first compound 0.8 µM): 1.14 | relative viability (NCI-H2405; first compound 2.53 µM): 1.11 | relative viability (NCI-H2405; first compound 8 µM): 1.06 | relative viability (PC-14; first compound 0.08 µM): 1.05 | relative viability (PC-14; first compound 0.8 µM): 0.992 | relative viability (PC-14; first compound 2.53 µM): 1.06 | relative viability (PC-14; first compound 8 µM): 1.08 | relative viability (NCI-H23; first compound 0.08 µM): 1.02 | relative viability (NCI-H23; first compound 0.8 µM): 1.09 | relative viability (NCI-H23; first compound 2.53 µM): 1.07 | relative viability (NCI-H23; first compound 8 µM): 1.16 | relative viability (EPLC-272H; first compound 0.08 µM): 0.736 | relative viability (EPLC-272H; first compound 0.8 µM): 0.866 | relative viability (EPLC-272H; first compound 2.53 µM): 0.916 | relative viability (EPLC-272H; first compound 8 µM): 0.65 | relative viability (EMC-BAC-2; first compound 0.08 µM): 1.05 | relative viability (EMC-BAC-2; first compound 0.8 µM): 1.09 | relative viability (EMC-BAC-2; first compound 2.53 µM): 0.973 | relative viability (EMC-BAC-2; first compound 8 µM): 1.07 | relative viability (NCI-H2347; first compound 0.08 µM): 0.981 | relative viability (NCI-H2347; first compound 0.8 µM): 0.837 | relative viability (NCI-H2347; first compound 2.53 µM): 1.21 | relative viability (NCI-H2347; first compound 8 µM): 0.942 | relative viability (NCI-H727; first compound 0.08 µM): 0.793 | relative viability (NCI-H727; first compound 0.8 µM): 1.13 | relative viability (NCI-H727; first compound 2.53 µM): 1.11 | relative viability (NCI-H727; first compound 8 µM): 0.761
